# What was measured:
# [1] = tested on: bombarded tobacco leaf explants; test: Direct selection of bombarded tobacco leaf explants on lethal level of PPT; type: cell-based, Nicotiana tabacum cv. Havana; details: 4 mg/L PPT, leaves bombarded with pMON53159
# Protocol: Dark green, round leaves are cut, preferably from the middle of the shoots, from 3-6 week old Nicotiana tabacum cv. Havana that have been maintained in vitro on hormone-free MS medium (Murashige and Skoog, (1962) Physiol Plant. 15, 473-497) supplemented with B5 vitamins in Phytatrays or sundae cups with a 16-hour photoperiod at 24° C. Each cut leaf is then placed adaxial side up on sterile filter paper over tobacco shoot regeneration medium (TSO medium: MS salts, 1 mg/L N^6-benzyladenine, 0.1 mg/L 1-naphthaleneacetic acid, 1 mg/L thiamine, 100 mg/L inositol, 7 g/L agar pH 5.8 and 30 g/L sucrose). Leaves are preferably placed in the center of the plate with as much contact with the medium as possible. The plates are preferably prepared immediately prior to use but may be prepared up to a day before transformation by particle bombardment by wrapping in plastic bags and storing at 24° C. overnight.
# Plates containing the leaf samples are placed on the second shelf from the bottom of the vacuum chamber and bombarded using the 1100 p.s.i. rupture disk. After bombardment, petri plates containing the leaf samples are wrapped in plastic bags and incubated at 24° C. for 48 hours as a delay period prior to phase one culturing.
# Direct selection of phosphinothricin (PPT) resistant transformants on lethal levels of PPT using plasmid pMON53159 carrying the bar gene alone were unsuccessful. […]
# [2] = tested on: wild-type plant cell plastids of tobacco leaf tissue; test: Electron microscopic analysis of plastid ultrastructure in tobacco leaf tissue cultured on drug-containing medium; type: cell-based, Nicotiana tabacum cv Petit Havana
# Protocol: (§1) Wild-type plants of Nicotiana tabacum cv Petit Havana were propagated in sterile hormone free MS medium (Murashige and Skoog (1962) Physiol. Plant. 15,473-497) supplemented with B5 vitamins in Phytatrays or sundae cups with a 16-hour photoperiod at 24° C. Leaf sections were aseptically removed and placed into new plant regeneration medium containing various concentrations of glyphosate, spectinomycin and phospinothricin. The leaf material was collected at 1-week and 4-week time points and prepared for electron microscopic observation of plastid ultrastructure. As a control, wild-type leaf sections were exposed to the initially plastid non-lethal antibiotic, spectinomycin, under identical conditions, or to medium without any drug.
# Cultured tobacco leaf pieces 1 mm^2 were fixed in 4% glutaraldehyde in 0.1 M sodium cacodylate buffer, pH 7.2 for 3 hours, with the first 30 minutes under vacuum. The tissue was further fixed in 1% osmium tetroxide in the above buffer for 90 minutes and stained with 1% aqueous uranyl acetate for 2 hours. Ethanol and propylene oxide were used to dehydrate the tissue prior to infiltration with a 1:1 mixture of Spurr's:EMbed 812 resin. The resin was polymerized at 60° C. for 48 hours. The resulting blocks were sectioned on a Leica Ultracut E microtome. Sections 80 nm thick were picked up on formvar/carbon-coated copper slot grids. The grids were stained with uranyl acetate and lead citrate in a LKB Ultrastainer and examined with a JEOL 1200 transmission electron microscope. All reagents were obtained from Electron Microscopy Sciences, Fort Washington, Pa.
# Tobacco leaf tissue was also analyzed on medium containing lower concentrations of glyphosate. […] Cultured tissue was prepared for electron microscopy as described above.
# To test the general effect of herbicides on plastid morphology, we examined tobacco leaf cultures that were grown in the presence of phosphinothricin (PPT, active ingredient in BASTA herbicide) at 4 mg/L, the concentration normally used for nuclear transformation. Leaves from healthy, tobacco plants at the same developmental stage were cut into about 5 mm×5 mm sections and placed on MS/B5 medium with 3% sucrose, 1 mg/L BAP, 0.1 mg/L NAA and 4 mg/L phosphinothricin for the 3, 7 or 12 days. The leaf sections were then fixed and processed for TEM analysis.
# [3] = tested on: tobacco leaf plant cultures; test: Visual appearance of tobacco leaf cultures on drug-containing medium; type: cell-based, Nicotiana tabacum cv Petit Havana
# Protocol: as §1
Compound,appearance of explants under direct selection [1],"plastid ultrastructure (TEM) ([2]; 4 mg/L phosphinothricin, 3 days)","plastid ultrastructure (TEM) ([2]; 4 mg/L phosphinothricin, 7 days)","plastid ultrastructure (TEM) ([2]; 4 mg/L phosphinothricin, 12 days)",visual effect on plant cultures ([3]; after 1 week),"visual effect on plant cultures ([3]; after 4 weeks, lower concentrations of glyphosate)","plastoglobuli diameter ([2]; 1 μM glyphosate, 7 days)","plastid ultrastructure (TEM) ([2]; 1 μM glyphosate, 7 days, TSO medium)","plastid ultrastructure (TEM) ([2]; 5 μM glyphosate, 7 days)","plastid ultrastructure (TEM) ([2]; 10 μM glyphosate, 7 days)","plastid ultrastructure (TEM) ([2]; 20 μM glyphosate, 3 days)","plastid ultrastructure (TEM) ([2]; 20 μM glyphosate, 7 days)","plastid ultrastructure (TEM) ([2]; 50 μM glyphosate, four weeks)","plastid ultrastructure (TEM) ([2]; 50 μM glyphosate, one week)","plastid ultrastructure (TEM) ([2]; 200 μM glyphosate, four weeks)","plastid ultrastructure (TEM) ([2]; 200 μM glyphosate, one week)","visual effect on plant cultures ([3]; after 4 weeks, spectinomycin)","plastid ultrastructure (TEM) ([2]; 500 mg/L spectinomycin, four weeks)","plastid ultrastructure (TEM) ([2]; 500 mg/L spectinomycin, one week)"
"CP(=O)(O)CC[C@H](N)C(=O)O [PPT, phosphinothricin]",bleached and demonstrated little or no cell expansion,Thylakoid membranes are completely absent,"even more dramatic, with oil bodies accumulated in the organelles","even more dramatic, with oil bodies accumulated in the organelles",–,–,–,–,–,–,–,–,–,–,–,–,–,–,–
O=C(O)CNCP(=O)(O)O [glyphosate],–,–,–,–,minimal effect visually on plant cultures,begin to form shoot primordia indicating recovery of the tissue,approximately 0.25 μm,typical morphology of metabolically active photosynthetic plastids,normal in appearance,normal in appearance,chloroplasts are beginning to show morphological damage,thylakoid membrane system is severely damaged,plastids appear to have recovered or adapted to some degree,reticulate network of thylakoid membranes has disappeared,completely devoid of internal structure,damage to plastid structure is occurring rapidly,–,–,–
CN[C@@H]1[C@H](O)[C@H](NC)[C@H]2O[C@@]3(O)C(=O)C[C@@H](C)O[C@H]3O[C@@H]2[C@H]1O [spectinomycin],–,–,–,–,minimal effect on plant cultures visually,–,–,–,–,–,–,–,–,–,–,–,tissue is completely bleached,plastids internal membranes have broken down almost completely and become vacuolated,plastids look relatively normal

# Reference: patent US6781033B2, “Method for the transformation of plant cell plastids” (Monsanto Technology LLC, priority 2000, dated 2004)
